We go through 5 compounds from article PMC12417329 (Food Science & Nutrition, 2025).

Each structure is given as a SMILES string. ≈ marks a conversion by molar mass, not a printed value. Entries after “also recorded” stand apart in the source; their conditions may differ. Like-named read-outs stand apart in the source and are kept apart here.

In one assay the test system is HPU. To be noted: ref Xiao et al. [2007]; cited from earlier work.
For assay [1], the target named is T1, jack bean urease (JBU) (Canavalia ensiformis, UniProt P07374).
T1 construct: Jack bean urease (JBU) (Type III, 40.3 U/mg) were offered by Sigma; purchased Sigma Type III, 40.3 U/mg (catalogue number not given)
T1 sequence (P07374 whole entry, looked up): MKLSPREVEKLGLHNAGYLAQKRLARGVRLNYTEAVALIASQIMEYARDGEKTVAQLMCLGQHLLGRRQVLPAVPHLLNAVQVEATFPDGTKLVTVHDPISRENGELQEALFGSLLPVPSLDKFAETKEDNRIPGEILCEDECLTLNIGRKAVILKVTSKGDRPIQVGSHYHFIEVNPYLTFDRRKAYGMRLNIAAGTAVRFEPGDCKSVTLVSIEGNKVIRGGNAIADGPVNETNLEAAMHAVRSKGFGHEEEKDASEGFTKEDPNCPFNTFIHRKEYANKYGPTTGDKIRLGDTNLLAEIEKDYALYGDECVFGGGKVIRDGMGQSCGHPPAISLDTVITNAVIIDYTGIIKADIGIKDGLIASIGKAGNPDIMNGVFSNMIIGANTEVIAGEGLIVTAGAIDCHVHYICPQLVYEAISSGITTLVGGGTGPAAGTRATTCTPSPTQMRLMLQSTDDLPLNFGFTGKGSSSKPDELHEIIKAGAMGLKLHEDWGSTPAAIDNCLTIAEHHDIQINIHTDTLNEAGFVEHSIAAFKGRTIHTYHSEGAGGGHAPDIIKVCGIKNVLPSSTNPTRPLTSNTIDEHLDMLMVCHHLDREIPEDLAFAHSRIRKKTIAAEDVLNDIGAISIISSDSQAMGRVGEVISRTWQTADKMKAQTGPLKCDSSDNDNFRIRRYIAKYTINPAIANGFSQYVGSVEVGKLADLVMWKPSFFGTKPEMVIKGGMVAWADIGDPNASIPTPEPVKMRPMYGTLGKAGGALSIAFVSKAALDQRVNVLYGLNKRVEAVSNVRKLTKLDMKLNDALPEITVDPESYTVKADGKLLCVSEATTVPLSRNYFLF
As to the kind of experiment: Reactivation of PIC-deactivated urease by GSH. Format: biochemical. Here is the method: (§1) After 20 min, half of the reaction solution was removed and added to 1.25 mM GSH solution. Enzyme activity was determined before and after the addition of GSH. After co‐incubation for different periods, the residual enzyme activity in the mixtures was detected as described in Section 2.4.

Assay [2] addresses T2, H. pylori urease (HPU) (Helicobacter pylori, UniProt P69996).
T2 construct: endogenous in cells; host or cells: Helicobacter pylori ATCC 43504 (extract, method of Matsubara et al. 2003)
As to the kind of experiment: Reactivation of PIC-deactivated urease by GSH. The format is biochemical. Here is the method: as §1

Assay [3] deals with T2, H. pylori urease (HPU). As to the kind of experiment: Urease inhibition test (Berthelot, ammonia at 595 nm). The format is biochemical. As for the experimental part:
(§2) The standard strain H. pylori strains (ATCC 43504) were cultured on Mueller‐Hinton agar supplemented with 5% sheep blood. Bacterial cultures were maintained for 72 h at 37°C in a microaerophilic environment (5% O2, 10% CO2, 85% N2). For urease extraction, bacterial cells were harvested by centrifugation (5000×g, 10 min, 4°C) and subsequently washed three times with phosphate‐buffered saline (pH 7.4). Following turbidity adjustment using McFarland standards, H. pylori urease was prepared via a method established by Matsubara et al. ([2003]).
Urease activity was measured using spectrophotometry. The reaction was initiated by blending a particular amount of enzyme‐containing solution and 150 mM urea in 20 mM HEPES buffer (pH 7.5) at 37°C. Following 20 min, the Berthelot reagent was applied, and the quantity of ammonia produced by the urease‐urea reaction was detected at 595 nm (Wu et al. [2013]). The control group represented the activity of the uninhibited enzyme, which is 100% active. […]
Then 150 mM urea was added, and the reaction was carried out in the dark for 20 min. Afterward, the Berthelot reagent was added, and the quantity of ammonia produced by the urease‐urea reaction was detected at 595 nm. The residual enzyme activity (RA%) was calculated using the formula: RA% = activity with inhibitor/activity without inhibitor × 100%. […]

The target of assay [4] is T1, jack bean urease (JBU). As to the kind of experiment: Urease inhibition type and kinetics (Lineweaver-Burk plots, progress curves). The format is biochemical. Here is the method: (§3) The Lineweaver‐Burk plots were applied to calculate the change in the Michaelis constant (K M) and maximum velocity (V max). […] Additionally, the inhibition constant was derived by secondary replotting of Lineweaver‐Burk plots. All tests were performed in triplicate.
(§4) Enzyme activity in both procedures was measured as outlined in Section 2.4. Subsequently, the curve fitting software was used to fit the data according to the following formula: Pt=VS×t+V0−VS(1−e^−kapp×t)/kapp^−1 where, P(t) is the amount of product accumulated after t minutes of reaction, V 0 is the velocity at the start of the reaction, V S is the velocity at which the reaction reaches equilibrium, and kapp is the apparent velocity constant (Breitenbach and Hausinger [1988]). The experiments were repeated three times.

Assay [5] addresses T2, H. pylori urease (HPU). The description is as above. Format: biochemical. As for the experimental part:
as §3, §4

Assay [6] concerns Helicobacter pylori strains (ATCC 43504, HP1869, HP1870). As to the kind of experiment: Minimal inhibitory concentration assay (agar dilution). Format: cell-based. As to conditions: ATCC43504, 120 h, pH 7.2, 5 days. As for the experimental part:
as §2
After solidification and overnight storage at 4°C to confirm sterility, plates showing no contamination were inoculated with 100 μL of H. pylori suspension (adjusted to McFarland 1.0 standard) and incubated microaerophilically (85% N2, 10% CO2, 5% O2) at 37°C for 5 days.
A general note: In agar dilution the substance is mixed into plates at graded concentrations.

Assay [7] has as its target T1, jack bean urease (JBU). As to the kind of experiment: biochemical.
The test system of another assay is JBU. As to conditions: cited from earlier work.
Where [8] appears, read: PIC-inactivated urease after adding 1.25 mM GSH.
Where [9] appears, read: co-incubation with 1.5 mM PIC for 20 min.
[10] abbreviates: Lineweaver-Burk plot, progress curves.
[11] abbreviates: 20 min preincubation at 37°C, 150 mM urea, pH 7.5, read-out: IC50.

T2 sequence (P69996 whole entry): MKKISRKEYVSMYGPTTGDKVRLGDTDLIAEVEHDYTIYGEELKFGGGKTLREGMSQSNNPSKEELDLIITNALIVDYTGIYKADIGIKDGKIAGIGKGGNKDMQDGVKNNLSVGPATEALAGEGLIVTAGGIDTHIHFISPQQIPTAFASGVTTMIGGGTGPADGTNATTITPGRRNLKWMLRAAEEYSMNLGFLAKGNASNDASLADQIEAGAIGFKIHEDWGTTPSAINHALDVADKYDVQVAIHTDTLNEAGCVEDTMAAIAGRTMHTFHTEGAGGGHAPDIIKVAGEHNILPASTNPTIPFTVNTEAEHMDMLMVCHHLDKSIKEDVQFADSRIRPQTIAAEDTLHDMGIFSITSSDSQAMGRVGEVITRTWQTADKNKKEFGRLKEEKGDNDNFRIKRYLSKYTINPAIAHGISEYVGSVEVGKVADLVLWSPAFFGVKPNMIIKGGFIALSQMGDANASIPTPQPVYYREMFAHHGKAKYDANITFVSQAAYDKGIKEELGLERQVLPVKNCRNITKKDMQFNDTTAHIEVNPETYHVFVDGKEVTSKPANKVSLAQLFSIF
T2 sequence (P14916 whole entry, further chain): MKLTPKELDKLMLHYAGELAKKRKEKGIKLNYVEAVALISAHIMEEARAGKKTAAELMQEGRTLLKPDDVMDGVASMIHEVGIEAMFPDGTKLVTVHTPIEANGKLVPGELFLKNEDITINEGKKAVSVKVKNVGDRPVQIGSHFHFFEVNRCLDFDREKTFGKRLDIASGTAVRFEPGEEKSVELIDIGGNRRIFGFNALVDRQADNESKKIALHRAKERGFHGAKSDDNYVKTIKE

On to `O=c1c(-c2ccc(O)cc2)coc2c(O)c(O)ccc12` [7,8,4′‐trihydroxyisoflavone], for which the IC50 in the assay with HPU is 140 µM.

In the case of `Oc1cc(O)cc(/C=C/c2ccc(O)c(O)c2)c1` [PIC, Piceatannol], the reversibility of inactivation result on jack bean urease (JBU) [1] (GSH reactivation) and on H. pylori urease (HPU) [2] (GSH reactivation) was “reversible” each time. For the same compound, the “urease activity restored, of the initial activity” value on jack bean urease (JBU) [1] (setting [8]) and at H. pylori urease (HPU) [2] (setting [8]) was “about 60%” in each case. Besides, the initial activity lost entry at jack bean urease (JBU) [1] (setting [9]) and at H. pylori urease (HPU) [2] (setting [9]) was “approximately 80%” throughout. For the same compound, the IC50 at H. pylori urease (HPU) [3] worked out at 670 ± 20 µM; against jack bean urease (JBU) [7], 470 ± 10 µM. In addition, the values for the inhibition constant (Ki) on jack bean urease (JBU) [4] and at H. pylori urease (HPU) [5] were 340 ± 50 µM and 630 ± 20 µM, respectively. Further, the inhibition type result against jack bean urease (JBU) [4] (setting [10]) is listed as “slow‐binding, non‐competitive inhibitor; also recorded: non‐competitive type; also recorded: slow‐binding inhibition”; on H. pylori urease (HPU) [5] (setting [10]), “slow‐binding, mixed inhibitor; also recorded: mixed‐type inhibitor; also recorded: slow‐binding inhibition”. Besides, the “inhibitory constant Kis” value against H. pylori urease (HPU) [5] (secondary replot of Lineweaver-Burk intercepts) was 0.94 ± 0.01 mM. Also, the MIC in [6] (pH 7.2, clinical strain HP1869, Mueller-Hinton agar) worked out at 100 µg/mL (≈ 409 µM); in [6] (pH 7.2, clinical strain HP1870, Mueller-Hinton agar) it was 100 µg/mL (≈ 409 µM); in assay [6] (pH 7.2, strain ATCC 43504 (standard strain), Mueller-Hinton agar), 150 µg/mL (≈ 614 µM).

For the compound `O=C(O)[C@H]1O[C@@H](Oc2cc3oc(-c4ccccc4)cc(=O)c3c(O)c2O)[C@H](O)[C@@H](O)[C@@H]1O` [Baicalin], the IC50 in the assay with JBU (ref Tan et al. [2013], Yu et al. [2015]) is 2740 ± 510 µM.

For `CC(=O)NO` [AHA, Acetohydroxamic acid, reference compound], the IC50 on H. pylori urease (HPU) [3] (setting [11]) worked out at 80 µM; on jack bean urease (JBU) [7] (setting [11]) it was 20 µM.

As for `O=C(O)[C@H]1O[C@@H](Oc2cc3oc(-c4ccc(O)cc4)cc(=O)c3c(O)c2O)[C@H](O)[C@@H](O)[C@@H]1O` [scutellarin], the IC50 in the assay with JBU (ref Wu et al. [2013]) is 1350 ± 150 µM.

A word on the IC50: it is the concentration that gives 50% inhibition. In general, Ki refers to the dissociation constant of the complex between target and ligand, obtained from inhibition or displacement. Higher therefore signals weaker binding. Usually MIC stands for the least concentration at which growth counts as inhibited. Read a low MIC as inhibition by little substance.
